≈ marks a conversion by molar mass, not a printed value. Where “and” joins values, the source holds several entries; their conditions need not be identical. Equal entries are not always repeated.
Settings: buffer; pH 7.4; 6.0 h; 150.0 µM

Row | Compound | solubility kinetic
1 | Cc1cc(C)c(C(=O)Nc2cccc([S+](=O)([O-])N3CCCC3)c2)[nH]1 | 11.5 µg/mL (≈ 33.1 µM)
2 | Cc1ccc(S(=O)(=O)Nc2ccccc2C(=O)Nc2nc(-c3ccccc3)co2)cc1 | < 1 µg/mL
3 | COc1ccc(S(=O)(=O)N(C(=O)C(C)C)c2ccc3oc(=O)sc3c2)cc1 | 8.8 µg/mL (≈ 21.6 µM)
4 | Cc1ccc(S(=O)(=O)Nc2cnccc2C(=O)Nc2nc(-c3cccc(Cl)c3)cs2)cc1 | < 1 µg/mL
5 | Cc1noc([C@@H]2CN(C(=O)c3nn(C)c4ccccc34)C[C@H]2CO)n1 | > 100 µg/mL
6 | Clc1ccc(-c2nc(-c3ccc(Br)o3)no2)c(Cl)c1 | < 1 µg/mL
7 | Cc1ccc(S(=O)(=O)Nc2cnccc2C(=O)NCCc2ccccc2)cc1 | > 58 µg/mL
8 | CN(Cc1ccccc1)C(=O)C1CCN(Cc2cccc3ccccc23)CC1 | > 55 µg/mL
9 | CCOC(=O)c1ccc2c(c1)c(C(C)=O)c(C)n2-c1ccc(OC)cc1 | < 1 µg/mL
10 | CC(Nc1nc(N2CCN(S(C)(=O)=O)CC2)nc2ccccc12)c1ccccc1 (configuration not stated) | 11 µg/mL (≈ 26.8 µM)
11 | CCOc1ccccc1N(CC(=O)Nc1cc(OC)ccc1OC)S(=O)(=O)c1ccccc1 | < 1 µg/mL
12 | O=C(Nc1ccccc1C(=O)Nc1ccccc1C(=O)NCc1ccco1)c1ccco1 | 4.45 µg/mL (≈ 10.4 µM)
13 | CC(C)(N)C(=O)N[C@H](COCc1ccccc1)C(=O)N1CCC2(CC1)CN(S(C)(=O)=O)c1ccccc12 | > 78 µg/mL
14 | COc1cccc(CNc2ccc([S+](=O)([O-])Nc3cc4ccccc4s3)cc2)c1O | < 1 µg/mL
15 | Oc1c(CN2CCN(c3ccccn3)CC2)cc(Cl)c2cccnc12 | 11.4 µg/mL (≈ 32.1 µM)
16 | CC(C)CC(=O)Nc1n[nH]c2c1CN(C(=O)C1CCN(C)CC1)C2(C)C | > 53 µg/mL
17 | CN1C(=O)c2ccccc2[S@](=O)c2ccc(C(=O)NCCc3cccs3)cc21 | 45.9 µg/mL (≈ 112 µM)
18 | CC(=O)c1c(C)n(-c2ccccc2)c2ccc(O)cc12 | 1.14 µg/mL (≈ 4.28 µM)
19 | CN1CCN(CCCN2c3ccccc3Sc3ccc(S(=O)(=O)N(C)C)cc32)CC1.CS(=O)(=O)O.CS(=O)(=O)O | > 66 µg/mL
20 | NC(=O)C1CCN(c2nccc(Cl)n2)CC1 | > 35 µg/mL
21 | COc1cc2c(c(OC)c1OC)-c1ccc(SC)c(=O)cc1C(N)CC2 (configuration not stated) | > 55 µg/mL
22 | CN([C@@H](Cc1ccc(OS(=O)(=O)c2cccc3cnccc23)cc1)C(=O)N1CCN(c2ccccc2)CC1)S(=O)(=O)c1cccc2cnccc12 | 1.32 µg/mL (≈ 1.83 µM)
23 | Clc1ccc2ncc(-c3cccc(NC4CCNC4)n3)n2c1 (configuration not stated) | > 46 µg/mL
24 | NS(=O)(=O)c1ccc(Cc2c(-c3cccc(-c4ccccc4)c3)nn(-c3nc(C(=O)O)cs3)c2CC2CC2)cc1 | > 84 µg/mL
25 | Cc1noc(C)c1Cc1ccc(C(=O)N2CCc3c(nc4cc(-c5ccccc5)[nH]n4c3=O)C2)o1 | 4.77 µg/mL (≈ 10.2 µM)

Row | Compound | solubility kinetic
26 | Cc1ccc(-n2nc3c(=O)n(CCCC(=O)NCc4ccccc4F)nc(C)c3c2C)cc1 | 4.17 µg/mL (≈ 9.32 µM)
27 | C=Cc1ccc(Cn2c(C(=O)O)c(CNC3CCCCC3)c3ccc(OC)cc32)cc1 | < 1 µg/mL
28 | CC(C)(C)c1ccc(-c2csc(N3CCC(C(N)=O)CC3)n2)cc1 | < 1 µg/mL
29 | COc1ccnc(NC(=S)N2CCN(c3cccc(C(F)(F)F)n3)CC2)c1 | < 1 µg/mL
30 | Fc1cc(Nc2nc(-c3ccncc3)nc3ccccc23)ccc1-c1cncnc1 | < 1 µg/mL
31 | O=S(=O)(Nc1nc2ccccc2s1)c1ccc(NCc2ccc(Br)cc2O)cc1 | 4.87 µg/mL (≈ 9.92 µM)
32 | COc1ccccc1Nc1ccnc(N2CCN(C(=O)c3ccc(F)cc3)CC2)n1 | 10.8 µg/mL (≈ 26.5 µM)
33 | Cc1ccnc(NC(=S)N2CCN(c3cc(F)cc(Cl)c3)CC2)c1 | < 1 µg/mL
34 | COc1ncccc1-c1cc2[nH]ccc2c(C(=O)NCc2c(C)cc(C)[nH]c2=O)n1 | 5.75 µg/mL (≈ 14.3 µM)
35 | COc1ccc(CCNc2ncnc3onc(C)c23)c(OC)c1 | 9.08 µg/mL (≈ 28.9 µM)
36 | CC1=C(C(=O)Nc2nc3ccccc3s2)C(c2[nH]ncc2Cl)N=C(Nc2nc3ccccc3o2)N1 (configuration not stated) | < 1 µg/mL
37 | Oc1ccc(-c2nc(C3CC3)nc3c2CCN(CC2CCCCC2)CC3)cc1 | 11.3 µg/mL (≈ 29.9 µM)
38 | CN1CCN(Cc2ccc(NC(=O)Cc3ccc(Oc4cc(NC(=O)C5CC5)ncn4)cc3)cc2C(F)(F)F)CC1 | 57.3 µg/mL (≈ 101 µM)
39 | Cn1nnnc1SCCCNCc1cccc(OCc2ccccc2Cl)c1 | > 60 µg/mL
40 | CCc1cccc(NC(=O)c2cc(-c3ccc[nH]3)n[nH]2)c1 | 4.59 µg/mL (≈ 16.4 µM)
41 | COC(=O)C1=C(C)NC(C)=C(C(=O)O[C@@H]2CCCN(Cc3ccccc3)C2)[C@@H]1c1cccc([N+](=O)[O-])c1 | < 1 µg/mL
42 | Fc1cc(Nc2nc(-c3ccncc3)nc3ccccc23)ccc1-c1cccc(OC(F)(F)F)c1 | < 1 µg/mL
43 | O=C1CCC(CNC(=O)c2nc(-c3ccccc3)cc3[nH]ccc23)N1 (configuration not stated) | > 74 µg/mL
44 | CC(C)CC(C)NC(=O)c1noc(-c2ccc[nH]c2=O)n1 (configuration not stated) | > 43 µg/mL
45 | Cc1ccc(C)n1-c1cccc(C(=O)O)c1 | > 32 µg/mL
46 | C#Cc1ccc(NC(=O)c2cnn3c(C)cc(C)nc23)cc1 | < 1 µg/mL
47 | NC(=O)C1CCN(c2nc(-c3ccc(Oc4ccccc4)cc3)cs2)CC1 | < 1 µg/mL
48 | O=C(Nc1cccc(F)c1)c1cc(-c2ccc[nH]2)n[nH]1 | 1.77 µg/mL (≈ 6.57 µM)
49 | COc1cccc(CNc2ccc(S(=O)(=O)Nc3ccc(-c4ccccc4)cc3)cc2)c1O | < 1 µg/mL
50 | Cc1ccc(-c2cc(C(=O)Nc3ccc(S(N)(=O)=O)cc3)c3ccccc3n2)cc1C | < 1 µg/mL

Row | Compound | solubility kinetic
51 | O=C1Nc2ccccc2/C1=C\c1ccc(O)cc1 | 0.999 µg/mL (≈ 4.21 µM)
52 | CC(C)Oc1ccc(-c2csc(N3CCC(C(N)=O)CC3)n2)cc1 | 11.7 µg/mL (≈ 33.8 µM)
53 | O=C(Nc1ccc(Cl)c(S(=O)(=O)N2CCOCC2)c1)c1ccccc1 | < 1 µg/mL
54 | O=C(Nc1nc(-c2ccccc2)cs1)c1ccncc1NS(=O)(=O)c1cccs1 | < 1 µg/mL
55 | COc1cc2c(Oc3ccc(-c4cnc(Nc5ccc(F)cc5)n(C)c4=O)cc3F)ccnc2cc1OCCCN1CCOCC1 | < 1 µg/mL
56 | Cc1ccccc1C(C(=O)NC1CCCC1)N(C(=O)Cn1cnc2ccccc21)c1cccc(F)c1 (configuration not stated) | 12.2 µg/mL (≈ 25.1 µM)
57 | CN=C1CN=C(c2ccc[nH]2)c2cc(Cl)ccc2N1 | 10.8 µg/mL and 28.3 µg/mL
58 | Cc1cc(NS(=O)(=O)c2ccc(NC(=O)Cc3ccc(Cl)c(F)c3)cc2)no1 | > 63 µg/mL
59 | Cc1ccc(C(=O)Nc2nc3nc(-c4ccccc4)cc(=O)n3[nH]2)cc1 | 2.64 µg/mL (≈ 7.65 µM)
60 | S=C(NCCCc1cnc[nH]1)NCCCN(Cc1ccc(Cl)c(Cl)c1)c1ccc(Br)cn1 | < 1 µg/mL
61 | CCOc1ccc(CCNC(=O)c2cc3ncccc3n2Cc2cccc(C)c2)cc1OCC | 36.5 µg/mL (≈ 79.7 µM)
62 | CC(C)COc1ccc(-c2ccc(=O)n(CC(=O)NCCc3ccccc3)n2)cc1 | < 1 µg/mL
63 | COc1cccc(CNCCSc2nnnn2C)c1OCc1ccc(Cl)cc1Cl | 16.6 µg/mL (≈ 36.4 µM)
64 | O=C(NC[C@H]1Cn2c(-c3ccc(Cl)cc3)cnc2CO1)C1CCCC1 | > 36 µg/mL
65 | Cc1ccnc(N=C(N)N2CCN(c3cccc(C(F)(F)F)c3)CC2)c1 | 24.4 µg/mL (≈ 67.2 µM)
66 | COc1cccc(C(=O)Nc2nc(-c3nnn(-c4ccccc4C(F)(F)F)c3C)ns2)c1 | 1.03 µg/mL (≈ 2.24 µM)
67 | Cc1cc(C)nc(NC(=S)N2CCN(c3cc(C(F)(F)F)nc4ccccc34)CC2)c1 | 19.7 µg/mL (≈ 44.3 µM)
68 | Oc1ccc(CNc2ccc(F)cc2F)c2cccnc12 | 1.22 µg/mL (≈ 4.27 µM)
69 | Cc1ccc(S(=O)(=O)Nc2ccc(Cl)cc2C(=O)Nc2nc(-c3ccccc3)cs2)cc1 | < 1 µg/mL
70 | COc1ccc(-n2nc(C3CCN(C(=O)Cc4ccc(F)cc4)CC3)[nH]c2=O)cc1 | > 61 µg/mL
71 | COc1cc2cc(CN3CCC(N(C)C)C3)c(-c3cccc(Cl)c3)nc2cc1OC (configuration not stated) | > 42 µg/mL
72 | CC(=O)Nc1ccc(N[S+](=O)([O-])c2cccc(NC(=O)c3[nH]c(C)c(C(C)=O)c3C)c2)cc1 | 18.3 µg/mL (≈ 39 µM)
73 | CC(C)c1ccccc1-c1ncc(F)c(NCC2CCN(c3cccnc3)CC2)n1 | 9.06 µg/mL (≈ 22.3 µM)
74 | CC(C)(C)OC(=O)N[C@@H](Cc1ccc(O[S+](=O)([O-])c2cccc3cnccc23)cc1)C(=O)Nc1ccc(-c2ccccc2)cc1 | < 1 µg/mL
75 | O=C(Nc1cc(Cc2ccccc2)ccn1)c1ccc(-c2cccc([N+](=O)[O-])c2)o1 | < 1 µg/mL

Row | Compound | solubility kinetic
76 | O=C1NCc2ccc(-c3cc4c(ccn4Cc4cccnc4)c(C4=CCOCC4)n3)cc21 | 54 µg/mL (≈ 128 µM)
77 | NC(=O)C1CCN(c2nc(-c3ccc4occc(=O)c4c3)cs2)CC1 | > 52 µg/mL
78 | Nc1nc2c(s1)C(c1ccccc1OCc1ccccc1Cl)CC(=O)N2 (configuration not stated) | 2.06 µg/mL (≈ 5.34 µM)
79 | CC(=O)c1ccc(N2CCN(S(=O)(=O)c3ccc4[nH]c(=O)[nH]c4c3)CC2)cc1 | 1.19 µg/mL (≈ 2.97 µM)
80 | c1ccc2c(Nc3ccc4nc[nH]c4c3)nc(-c3ccncc3)nc2c1 | < 1 µg/mL
81 | CC1CN(c2ccc(Nc3nc(-c4ccncc4)nc4ccccc34)cc2F)CC(C)O1 (configuration not stated) | < 1 µg/mL
82 | O=S(=O)(Nc1nccs1)c1ccc(NCc2cccc(O)c2)cc1 | > 53 µg/mL
83 | CCN(CC)S(=O)(=O)c1ccc(N2CCCC2)c(NS(=O)(=O)c2ccc(C)cc2)c1 | 4.02 µg/mL (≈ 8.91 µM)
84 | Cc1nc([N+](=O)[O-])cn1-c1ccc([N+](=O)[O-])cc1 | > 37 µg/mL
85 | c1ccc(Nc2cc3c(cn2)CN(Cc2ccc4[nH]ccc4c2)CCN3)cc1 | 30.6 µg/mL (≈ 82.8 µM)
86 | C[S+](=O)([O-])c1ccc(-c2nc(C(=O)NCc3cccnc3)n3ccccc23)cc1 | 11.4 µg/mL (≈ 27.9 µM)
87 | CCOc1ccc(OCC)c(NC(=O)C(NS(=O)(=O)c2ccc(Br)s2)c2ccccc2)c1 (configuration not stated) | < 1 µg/mL
88 | CC(=O)N1CCC(NC(=O)c2nc(-c3ccccc3)cc3[nH]ccc23)CC1 | > 80 µg/mL
89 | O=S(=O)(Nc1ccccc1)c1ccc(NCc2cccc(Cl)c2O)cc1 | 2.64 µg/mL (≈ 6.8 µM)
90 | CCCCCn1cc2c(c1-c1ccc(Br)cc1)c(=O)n(C)c(=O)n2C | < 1 µg/mL
91 | COc1ccc(-n2nc(C3CCCN(C(=O)c4ccccc4)C3)[nH]c2=O)cc1 (configuration not stated) | > 56 µg/mL
92 | Cc1ccccc1C(=O)Nc1sc2c(c1C(=O)NCc1ccco1)CCC(C(C)(C)C)C2 (configuration not stated) | < 1 µg/mL
93 | COc1cccc(C(=O)Nc2nc(-c3nnn(-c4cccc(Cl)c4C)c3C)ns2)c1 | < 1 µg/mL
94 | COCCn1ccc2c(C3=CCOCC3)nc(-c3ccc4c(c3)CNC4=O)cc21 | > 86 µg/mL
95 | Oc1ccc(CNc2ccccc2F)c2cccnc12 | 4.4 µg/mL (≈ 16.4 µM)
96 | COc1cc(Cl)c(C)cc1NS(=O)(=O)c1c(C)nc2sccn2c1=O | < 1 µg/mL
97 | CN1C(=O)c2ccccc2[S@](=O)c2ccc(C(=O)NCc3ccc(Br)cc3)cc21 | < 1 µg/mL

Reference: PubChem BioAssay AID1645848
